Where two headings read alike, the source gives them in different places.
Test system: compound-treated mice
Test: Neuropharmacological assay (SmartCube): behavioral activity signature and minimal effective dose
Type: in vivo
Settings: for minimal effective dose: Mus musculus, ip, MED = dose having 50% or more total activity; for AD: ADHD (probability of activity signature) / AG: analgesic (probability of activity signature) / AX: anxiolytic (probability of activity signature) / CE: cognitive enhancer (probability of activity signature) / DP: anti-depressant (probability of activity signature) / MS: mood stabilizer (probability of activity signature) / PS: anti-psychotic (probability of activity signature) / SD: sedative hypnotic (probability of activity signature) / UN: uncharacterized CNS activity (probability of activity signature): i.p. 15 min before test, most efficacious dose(s)
Procedure, shortened: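 Video-recorded behavior is compared algorithmically against a reference-compound database, yielding class probabilities (best dose reported). Compounds given i.p. in NMP/PEG/propylene glycol 15 min pre-test at 3 doses; potency as MED, the dose (mpk, range usually 0.3–30) reaching ≥50% total activity.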

[1] = read-out: Potency: minimal effective dose (MED)
[2] = read-out: Potency: minimal effective dose (MED), binned

Structure (SMILES) | minimal effective dose [1] [mg/kg] | AD: ADHD (probability of activity signature) | AG: analgesic (probability of activity signature) | AX: anxiolytic (probability of activity signature) | CE: cognitive enhancer (probability of activity signature) | DP: anti-depressant (probability of activity signature) | MS: mood stabilizer (probability of activity signature) | PS: anti-psychotic (probability of activity signature) | SD: sedative hypnotic (probability of activity signature) | UN: uncharacterized CNS activity (probability of activity signature) | minimal effective dose [2] [mg/kg]
COc1ccc2c(c1)[C@H](N)[C@H](C)OC2.Cl [Example 84] | 3 to 10 | + (LOQ ≤ + <5%) | ++ (5% ≤ ++ <25%) | ++++ (50% ≤ ++++) | ++ (5% ≤ ++ <25%) | ++ (5% ≤ ++ <25%) | + (LOQ ≤ + <5%) | ++ (5% ≤ ++ <25%) | + (LOQ ≤ + <5%) | +++ (25% ≤ +++ <50%) | 
N[C@H]1COCc2ccccc21 (single isomer, unassigned) [Example 112] | 10 to 30 | + (LOQ ≤ + <5%) | ++ (5% ≤ ++ <25%) | ++ (5% ≤ ++ <25%) | +++ (25% ≤ +++ <50%) | ++ (5% ≤ ++ <25%) | + (LOQ ≤ + <5%) | ++ (5% ≤ ++ <25%) | + (LOQ ≤ + <5%) | + (LOQ ≤ + <5%) | 
Cc1cc(C)c2c(c1)[C@H](N)COC2 (single isomer, unassigned) [Example 125] | < 3 | + (LOQ ≤ + <5%) | + (LOQ ≤ + <5%) | ++ (5% ≤ ++ <25%) | ++ (5% ≤ ++ <25%) | ++ (5% ≤ ++ <25%) | + (LOQ ≤ + <5%) | ++ (5% ≤ ++ <25%) | ++ (5% ≤ ++ <25%) | ++++ (50% ≤ ++++) | 
CCN(C)C(=O)Oc1ccc2c(c1)COCC2N(C)C.Cl (stereo not shown) [Example 283] |  | ++ (5% ≤ ++ <25%) | + (LOQ ≤ + <5%) | ++ (5% ≤ ++ <25%) | + (LOQ ≤ + <5%) | ++ (5% ≤ ++ <25%) | +++ (25% ≤ +++ <50%) | ++ (5% ≤ ++ <25%) | ++ (5% ≤ ++ <25%) | ++ (5% ≤ ++ <25%) | 3 to 10
CC[C@H]1OCc2ccc(F)cc2[C@H]1N [Example 188] |  | + (LOQ ≤ + <5%) | ++ (5% ≤ ++ <25%) | ++ (5% ≤ ++ <25%) | + (LOQ ≤ + <5%) | ++ (5% ≤ ++ <25%) | + (LOQ ≤ + <5%) | ++ (5% ≤ ++ <25%) | + (LOQ ≤ + <5%) | ++++ (50% ≤ ++++) | < 3
Cc1ccc2c(c1)[C@@H](C)OC[C@H]2N [Example 221] |  | + (LOQ ≤ + <5%) | + (LOQ ≤ + <5%) | ++ (5% ≤ ++ <25%) | + (LOQ ≤ + <5%) | ++ (5% ≤ ++ <25%) | + (LOQ ≤ + <5%) | ++ (5% ≤ ++ <25%) | + (LOQ ≤ + <5%) | ++++ (50% ≤ ++++) | 3 to 10
Cc1ccc(Cl)c2c1[C@@H](N)COC2 (single isomer, unassigned) [Example 176] |  | + (LOQ ≤ + <5%) | + (LOQ ≤ + <5%) | ++ (5% ≤ ++ <25%) | ++ (5% ≤ ++ <25%) | ++ (5% ≤ ++ <25%) | + (LOQ ≤ + <5%) | ++ (5% ≤ ++ <25%) | + (LOQ ≤ + <5%) | ++++ (50% ≤ ++++) | 3 to 10
